Several values for one entry are separate records, joined by “and”; a condition that tells them apart may be missing. Equal values may be shown once.
How the values were obtained:
CYP2C19 = CYP2C19 (Homo sapiens, UniProt P33261); conditions: recombinant enzyme
Protocol: (§2) Control incubations were performed for each assay with appropriate positive inhibitory controls.

[1] = system: animal substance use models; conditions: i.p.; cited from earlier work
Pharmacokinetics in rats = assay type: in vivo, rat
Protocol: 18-MC is rapidly absorbed and distributed into the brain and fat tissues in rats dosed with 40 mg/kg p.o. or i.p. The estimated volume of distribution is 8 L/kg. 18-MC levels in fat were 4.2 μM and 2.5 μM at 2 hours and 24 hours, respectively. […] On oral administration, it appears that the major metabolites are either M4 or M5, depending on the animal species tested. M4 and M5 are the primary circulating drug species because they are present at proportions greater than 18-MC. […] In the animal species tested its half-life is less than 2 hours at lower doses. At high doses a long elimination phase is evident (ranging from 9 to 20 hours in rats). 18-MC is highly protein bound (95-98%).

CD-1 mice = experiment: 14-day oral gavage GLP toxicity study in CD-1 mice; assay type: in vivo, mouse
Protocol: (§1) All test article-treated animals underwent up-titration of dosage levels prior to reaching the maximum daily dose, which was administered for 14 consecutive days. […] The dose volume was 10 mL/kg for all groups. Groups 1 and 4 each consisted of 25 animals/sex and Groups 2-3 each consisted of 20 animals for each sex. Following 14 days of dose administration, 15 mice/sex/toxicology group were euthanized; the remaining 5, (10 for the control and high dose group) mice/sex/toxicology group were euthanized following a 14-day nondosing (recovery) period. Following the final blood collection (study day 13), all toxicokinetic animals (from a satellite group of 18 animals/sex/dose level) were euthanized.
For toxicology assessment, all animals were observed twice daily for mortality and moribundity. Clinical observations were recorded daily, and detailed physical examinations were conducted weekly. Body weights and food consumption were recorded twice weekly. Body temperature was recorded prior to dosing and following dosing at the time that post-dosing clinical observations were conducted. Functional observational battery (FOB) data were recorded for all animals near the start of the treatment period, near the end of the treatment period, and near the end of the recovery period. Ophthalmic examinations were performed during pretest and near the end of the dosing period. At the primary necropsy 10 animals/sex/group and at the recovery necropsy 5 animals/sex/group, were selected for complete necropsies, clinical pathology assessment (hematology and serum chemistry), organ weight collection, and microscopic examination of a full list of tissues. At each termination interval, 5 animals/sex/group were assigned for neuropathology assessments that involved perfusion fixation, comprehensive sectioning of the brain and collection of selected peripheral nerves, and the employment of special stains used to detect subtle neuronal injury.

[2] = system: rats, cocaine seeking behavior; conditions: 40 mg/kg i.p.; cited from earlier work
[3] = Toxicokinetics, 14-day oral gavage study in CD-1 mice; assay type: in vivo, mouse
Protocol: The relative metabolite concentrations were determined from plasma samples obtained on the last day of dosing in the 25 mg/kg/day group of animals using a UPLC/MS/MS method. Major metabolites were identified as M2 and M4, followed by M8 and M9. The parent 18-MC exposure was less than 1% of the total drug related material. No significant sex differences were observed.
as §1

hERG potassium channel = target: T1, hERG potassium channel (Homo sapiens, UniProt Q12809); experiment: In vitro hERG channel inhibition assay, stably transfected CHO cells, voltage clamp; assay type: cell-based; conditions: average of 3 recordings; read-out: IC50, hERG current inhibition
T1 construct: expressed in transfected cells; host or cells: CHO, stably transfected
T1 sequence (Q12809 whole entry): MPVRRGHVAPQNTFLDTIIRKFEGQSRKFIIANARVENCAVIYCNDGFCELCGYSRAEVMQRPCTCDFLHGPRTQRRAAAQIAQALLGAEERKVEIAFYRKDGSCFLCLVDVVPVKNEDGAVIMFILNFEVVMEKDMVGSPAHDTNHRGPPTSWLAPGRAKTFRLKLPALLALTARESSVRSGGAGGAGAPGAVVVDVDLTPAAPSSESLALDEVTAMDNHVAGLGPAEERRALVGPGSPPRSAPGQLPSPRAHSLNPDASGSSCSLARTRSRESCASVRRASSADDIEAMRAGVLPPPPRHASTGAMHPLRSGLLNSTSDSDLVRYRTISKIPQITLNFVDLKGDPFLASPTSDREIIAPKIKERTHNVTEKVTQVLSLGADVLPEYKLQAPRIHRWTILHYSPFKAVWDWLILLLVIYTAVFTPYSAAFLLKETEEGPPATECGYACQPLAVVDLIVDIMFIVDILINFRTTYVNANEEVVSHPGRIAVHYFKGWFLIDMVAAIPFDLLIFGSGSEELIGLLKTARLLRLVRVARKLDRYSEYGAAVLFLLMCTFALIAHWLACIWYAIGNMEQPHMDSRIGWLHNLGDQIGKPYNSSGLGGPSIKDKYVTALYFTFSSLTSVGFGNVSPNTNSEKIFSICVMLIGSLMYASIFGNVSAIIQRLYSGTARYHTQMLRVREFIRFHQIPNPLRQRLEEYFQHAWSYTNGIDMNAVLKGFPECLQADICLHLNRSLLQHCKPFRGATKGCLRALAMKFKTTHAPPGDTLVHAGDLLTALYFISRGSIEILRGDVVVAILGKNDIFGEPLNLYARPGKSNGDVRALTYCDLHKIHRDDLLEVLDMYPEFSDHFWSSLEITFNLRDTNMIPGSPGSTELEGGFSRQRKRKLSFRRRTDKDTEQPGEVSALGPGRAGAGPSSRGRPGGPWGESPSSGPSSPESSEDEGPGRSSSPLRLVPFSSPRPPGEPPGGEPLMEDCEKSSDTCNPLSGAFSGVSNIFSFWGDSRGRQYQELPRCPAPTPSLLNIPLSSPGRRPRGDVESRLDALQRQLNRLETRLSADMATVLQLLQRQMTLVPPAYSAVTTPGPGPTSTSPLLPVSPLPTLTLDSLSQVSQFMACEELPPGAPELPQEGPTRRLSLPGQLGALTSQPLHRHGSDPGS
Protocol: The potential for 18-MC to inhibit the hERG potassium channel was evaluated in a stably transfected Chinese Hamster Ovary (CHO) cell line expressing hERG mRNA (FIG. 12). […] Cells were voltage clamped at a holding potential of −80 mV. The hERG current was then activated by a depolarizing step ([…] for 300 ms) and repeated every 12 s. 18-MC was prepared from 10 mM methanol stock solutions. The hERG current inhibition was calculated from the average of 3 separate recordings.

CYP2E1 = CYP2E1 (Homo sapiens, UniProt P05181); conditions: recombinant enzyme
CYP2E1, sequence (P05181 whole entry): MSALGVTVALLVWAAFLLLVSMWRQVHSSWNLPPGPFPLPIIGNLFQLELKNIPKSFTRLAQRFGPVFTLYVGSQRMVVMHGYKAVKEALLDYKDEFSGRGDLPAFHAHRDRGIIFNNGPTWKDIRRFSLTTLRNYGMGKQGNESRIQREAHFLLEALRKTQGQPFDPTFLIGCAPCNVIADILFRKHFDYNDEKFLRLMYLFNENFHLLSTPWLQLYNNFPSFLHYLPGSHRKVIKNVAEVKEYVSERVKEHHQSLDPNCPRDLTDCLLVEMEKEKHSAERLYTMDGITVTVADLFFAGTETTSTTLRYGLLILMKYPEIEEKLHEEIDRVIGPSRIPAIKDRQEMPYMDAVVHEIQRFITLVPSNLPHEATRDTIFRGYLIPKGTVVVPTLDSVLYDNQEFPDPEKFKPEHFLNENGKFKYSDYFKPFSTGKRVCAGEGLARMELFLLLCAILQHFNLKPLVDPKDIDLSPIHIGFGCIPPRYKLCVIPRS
Protocol: as §2

CYP2A6 = CYP2A6 (Homo sapiens, UniProt P11509); conditions: recombinant enzyme
CYP2A6, sequence (P11509 whole entry): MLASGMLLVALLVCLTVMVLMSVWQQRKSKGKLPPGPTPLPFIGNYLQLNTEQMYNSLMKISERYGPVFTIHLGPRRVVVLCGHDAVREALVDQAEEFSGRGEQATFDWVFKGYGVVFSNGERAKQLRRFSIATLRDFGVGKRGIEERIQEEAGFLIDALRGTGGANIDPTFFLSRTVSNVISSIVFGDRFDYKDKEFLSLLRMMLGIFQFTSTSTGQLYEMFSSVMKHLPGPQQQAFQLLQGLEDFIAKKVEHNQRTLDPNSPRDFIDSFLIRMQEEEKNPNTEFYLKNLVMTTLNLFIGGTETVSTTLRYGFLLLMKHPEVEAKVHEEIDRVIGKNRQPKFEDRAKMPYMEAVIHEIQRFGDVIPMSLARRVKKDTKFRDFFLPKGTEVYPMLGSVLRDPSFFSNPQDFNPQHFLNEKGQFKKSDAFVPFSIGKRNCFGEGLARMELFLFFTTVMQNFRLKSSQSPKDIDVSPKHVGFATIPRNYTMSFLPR
Protocol: as §2

plasma protein = experiment: Plasma protein binding, all species tested; assay type: in vitro ADME
Protocol: In all the species tested in pre-clinical studies, 18-MC is rapidly absorbed following oral administration with Tmax occurring in less than 0.5 hours following oral administration. After oral administration, the elimination of 18-MC is multi-compartmental. In plasma, 18-MC is highly protein bound (92% to 98%). 18-MC is also rapidly and extensively metabolized, presumably by first pass metabolism. At least […] different metabolites have been detected both in vitro and in vivo, further described below (M1-M9, P1-P3). The major metabolites (those with exposure greater than 10% of the total drug related material) appear to change with the dose and duration of dosing. Major metabolites include M2, M4, M5, M8, M9 and P2 depending on the animal species tested, and the dose and duration of dosing.
There is no information on the protein binding of any of the metabolites.

CYP1A2 = CYP1A2 (Homo sapiens, UniProt P05177); conditions: recombinant enzyme
CYP1A2, sequence (P05177 whole entry): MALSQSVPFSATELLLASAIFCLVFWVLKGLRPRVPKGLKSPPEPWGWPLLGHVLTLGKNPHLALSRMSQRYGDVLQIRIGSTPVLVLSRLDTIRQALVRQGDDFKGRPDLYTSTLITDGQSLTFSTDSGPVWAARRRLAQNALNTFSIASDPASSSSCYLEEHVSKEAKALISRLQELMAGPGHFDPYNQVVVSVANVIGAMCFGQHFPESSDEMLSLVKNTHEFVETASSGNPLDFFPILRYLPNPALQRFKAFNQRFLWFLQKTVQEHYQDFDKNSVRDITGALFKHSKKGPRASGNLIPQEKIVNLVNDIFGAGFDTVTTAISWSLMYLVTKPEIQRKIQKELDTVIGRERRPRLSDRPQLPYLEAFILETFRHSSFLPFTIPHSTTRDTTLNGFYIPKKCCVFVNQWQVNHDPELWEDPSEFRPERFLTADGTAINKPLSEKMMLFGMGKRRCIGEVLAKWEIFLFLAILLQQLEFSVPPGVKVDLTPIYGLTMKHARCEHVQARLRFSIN
Protocol: as §2

[4] = after 14 days of 25 mg/kg 18-MC HCl

CYP2C19, sequence (P33261 whole entry): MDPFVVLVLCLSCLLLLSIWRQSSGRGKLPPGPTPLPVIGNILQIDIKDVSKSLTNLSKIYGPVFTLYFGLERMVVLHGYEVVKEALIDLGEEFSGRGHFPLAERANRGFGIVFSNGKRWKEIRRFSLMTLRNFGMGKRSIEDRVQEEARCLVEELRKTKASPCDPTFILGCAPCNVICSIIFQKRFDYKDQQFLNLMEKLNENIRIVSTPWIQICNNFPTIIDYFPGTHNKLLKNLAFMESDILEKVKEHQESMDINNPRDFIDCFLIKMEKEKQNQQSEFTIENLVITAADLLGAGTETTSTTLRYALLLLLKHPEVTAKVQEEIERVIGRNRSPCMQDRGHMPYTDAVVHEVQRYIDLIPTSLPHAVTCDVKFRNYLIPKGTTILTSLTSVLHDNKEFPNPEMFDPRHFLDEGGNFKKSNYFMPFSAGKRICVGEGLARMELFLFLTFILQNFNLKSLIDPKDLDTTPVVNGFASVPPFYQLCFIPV

Structure (SMILES): COCCC1CC2CN3CCc4c([nH]c5ccccc45)C(C(=O)OC)(C2)C13.Cl (centres unmarked) [18-MC HCl, 18-Methoxycoronaridine hydrochloride]
- IC50 (CYP2C19): < 1.5 µM
- lowest dosage that significantly reduces drug self-administration [1]: ≥ 10 mg/kg
- oral bioavailability (Pharmacokinetics in rats; 60 mg/kg): about 8%
- mortality (CD-1 mice; 100 mg/kg/day group, Days −1 and 12): two male mice in the 100 mg/kg/day group were found dead
- HED of well tolerated dose (CD-1 mice; female mice, 100 mg/kg/day): 8 mg/kg/day
- NOAEL (CD-1 mice; females): 100 mg/kg/day
- HED of well tolerated dose (CD-1 mice; male mice, 50 mg/kg/day): 4 mg/kg/day
- NOAEL (CD-1 mice; males): 50 mg/kg/day
- neurobehavioral findings, Functional Observational Battery (CD-1 mice; up to 100 mg/kg/day, except non-adverse decreased body temperature): no noted neurobehavioral findings
- reinstatement effect of cues associated with cocaine self-administration [2]: blocked the reinstatement effect
- AUC(0-24) ([3]; Day 0, Female, 25 mg/kg/day): 77.8 ng·h/mL
- Cmax ([3]; Day 0, Female, 25 mg/kg/day): 30.8 ng/mL
- Tmax ([3]; Day 0, Female, 25 mg/kg/day): 30 min
- AUC(0-24) ([3]; Day 0, Female, 50 mg/kg/day): 56.2 ng·h/mL
- Cmax ([3]; Day 0, Female, 50 mg/kg/day): 23.7 ng/mL
- Tmax ([3]; Day 0, Female, 50 mg/kg/day): 30 min
- AUC(0-24) ([3]; Day 0, Female, 100 mg/kg/day): 187 ng·h/mL
- Cmax ([3]; Day 0, Female, 100 mg/kg/day): 51.8 ng/mL
- Tmax ([3]; Day 0, Female, 100 mg/kg/day): 60 min
- AUC(0-24) ([3]; Day 0, Male, 25 mg/kg/day): 66.6 ng·h/mL
- Cmax ([3]; Day 0, Male, 25 mg/kg/day): 19.4 ng/mL
- Tmax ([3]; Day 0, Male, 25 mg/kg/day): 30 min
- AUC(0-24) ([3]; Day 0, Male, 50 mg/kg/day): 108 ng·h/mL
- Cmax ([3]; Day 0, Male, 50 mg/kg/day): 44.3 ng/mL
- Tmax ([3]; Day 0, Male, 50 mg/kg/day): 30 min
- AUC(0-24) ([3]; Day 0, Male, 100 mg/kg/day): 349 ng·h/mL
- Cmax ([3]; Day 0, Male, 100 mg/kg/day): 131 ng/mL
- Tmax ([3]; Day 0, Male, 100 mg/kg/day): 60 min
- AUC(0-24) ([3]; Day 13, Female, 25 mg/kg/day): 54.5 ng·h/mL
- Cmax ([3]; Day 13, Female, 25 mg/kg/day): 25.6 ng/mL
- Tmax ([3]; Day 13, Female, 25 mg/kg/day): 30 min
- AUC(0-24) ([3]; Day 13, Female, 50 mg/kg/day): 119 ng·h/mL
- Cmax ([3]; Day 13, Female, 50 mg/kg/day): 49.9 ng/mL
- Tmax ([3]; Day 13, Female, 50 mg/kg/day): 30 min
- AUC(0-24) ([3]; Day 13, Female, 100 mg/kg/day): 188 ng·h/mL
- Cmax ([3]; Day 13, Female, 100 mg/kg/day): 44.0 ng/mL
- T1/2 ([3]; Day 13, Female, 100 mg/kg/day): 147 min
- Tmax ([3]; Day 13, Female, 100 mg/kg/day): 30 min
- AUC(0-24) ([3]; Day 13, Male, 25 mg/kg/day): 50.5 ng·h/mL
- Cmax ([3]; Day 13, Male, 25 mg/kg/day): 23.6 ng/mL
- Tmax ([3]; Day 13, Male, 25 mg/kg/day): 30 min
- AUC(0-24) ([3]; Day 13, Male, 50 mg/kg/day): 164 ng·h/mL
- Cmax ([3]; Day 13, Male, 50 mg/kg/day): 92.9 ng/mL
- T1/2 ([3]; Day 13, Male, 50 mg/kg/day): 107 min
- Tmax ([3]; Day 13, Male, 50 mg/kg/day): 30 min
- AUC(0-24) ([3]; Day 13, Male, 100 mg/kg/day): 329 ng·h/mL
- Cmax ([3]; Day 13, Male, 100 mg/kg/day): 136 ng/mL
- T1/2 ([3]; Day 13, Male, 100 mg/kg/day): 116 min
- Tmax ([3]; Day 13, Male, 100 mg/kg/day): 30 min

Structure (SMILES): COCC[C@H]1CC2CN3CCc4c([nH]c5ccccc45)[C@](C(=O)OC)(C2)[C@H]13 [18-MC, 18-methoxycoronaridine]
- IC50 (CYP2C19): 4.9 µM
- IC50 (hERG potassium channel): 1.46 µM and 1.6 µM
- IC50 (CYP2E1): 28 µM
- IC50 (CYP2A6): > 100 µM
- lowest dosage that significantly reduces drug self-administration [1]: ≥ 10 mg/kg
- estimated volume of distribution (Pharmacokinetics in rats; 40 mg/kg p.o. or i.p.): 8 L/kg
- oral bioavailability for total drug substance (AUC of 18-MC and its metabolites) (Pharmacokinetics in rats; 60 mg/kg): about 25%
- 18-MC level in fat (Pharmacokinetics in rats; 2 hours): 4.2 µM
- 18-MC level in fat (Pharmacokinetics in rats; 24 hours): 2.5 µM
- protein bound in plasma (plasma protein): 95-98% and 92-98%
- AUC [3, 4]: 251 ng·h/mL
- Cmax [3, 4]: 105 ng/mL
- IC50 (CYP1A2): > 100 µM
